Results reported in publication PMC10575543 (PLOS Pathogens, 2023).
“And” between values parts separate entries of the source, which are not always exact repeats. Equal values may be shown once.

Key:
ALSV MTase [1] = molecular target: T1, ALSV MTase (Alongshan virus, UniProt A0A344X2I6); assay: biochemical; format: binding
ALSV MTase [2] = molecular target: T1, ALSV MTase; format: biochemical

| SMILES | N index (binding stoichiometry) (ALSV MTase [1]) | Kd (ALSV MTase [1]) [µM] | inhibition of ALSV MTase methyltransferase activity (ALSV MTase [2]) |
| --- | --- | --- | --- |
| Nc1ncnc2c1ncn2[C@@H]1O[C@H](CSCC[C@H](N)C(=O)O)[C@@H](O)[C@H]1O [SAH, S-adenosyl-L-homocysteine] | 0.95 ± 0.05 and 1.05 ± 0.06 |  |  |
| Nc1ncnc2c1ncn2[C@@H]1O[C@H](C[C@@H](N)CC[C@H](N)C(=O)O)[C@@H](O)[C@H]1O [SIN, sinefungin] |  | 12.6 ± 2.8 | preserved its inhibitory capacity |
